The subject of series [1] is CCR2 transfected CHO-K1 cells. The series is described as follows: Chemotaxis assay, 48-well microchemotaxis chamber. It counts as cell-based, avian. Conditions: Fig. 9; n = 5.

Bridge positions count the residues as written; N and C are the ends. Square brackets hold non-standard residues; d marks the D form. Ends that are not written are not given here. Abu = CC[C@H](N)C(=O)O

Consider “GPDS[Abu]NHDRGL[Abu]RVGN[Abu]NPGEYLAKY[Abu]FEPVIL[Abu][Abu]KPLSPTPTKT [AvBD-12A6]”, for which the “chemotactic activity for CCR2-CHO-K1 cells (in words)” value (“chemotactic activity … (in words)” for short) in series [1] was “lost their chemotactic activity”.
Consider “GPDSC^1NHDRGLC^2RVGNC^3NPGEYLAKYC^4FEPVILC^5C^6VRNRWA (bicyclic or more) [AvBD-12/6, group 3 hybrid peptide: backbone of AvBD-12 with amino acid residues of AvBD-6]”, for which the “chemotactic activity … (in words)” value in series [1] was “retained the chemotactic function”.
Substance “GPRSANHKRGLARVGNANPGKYLAKYSFRPVILSSKPLSPTPTKT [AvBD-12A3]” showed a chemotactic activity, % of wild type AvBD-12 greater than 50%. Besides, in series [1], the “chemotactic activity … (in words)” value is given as “minimal chemotactic activity”.
Turning to “GPHSANHVRGLARVGNANPGLYLAKYAFIPVILAAKPLSPTPTKT [AvBD-12A1]”, the “chemotactic activity … (in words)” value in series [1] is reported as “minimal chemotactic activity”.
As to “GPDS[Abu]NHDRGL[Abu]RVGNCNPGEYLAKY[Abu]FEPVIL[Abu]CKPLSPTPTKT (disulfide 17-35) [AvBD-12A5]”, the “chemotactic activity … (in words)” value in series [1] is “lost their chemotactic activity”.
